Source: patent publication US8048879B2, “Substituted 4,5,6,7-tetrahydro-isoxazolo[4,5-c]pyridine compounds and use thereof for producing medicaments” (Gruenenthal GmbH, priority 2005, dated 2011)

Test system: batrachotoxin (BTX) binding site of the sodium channel
Experiment: Affinity for the batrachotoxin (BTX) binding site of the sodium channel, [3H]-batrachotoxinin A20 α-benzoate, rat cerebrocortex synaptosomes
Conditions: test concentration not given

Structure (SMILES)	BTX inhibition (rat) % inhibition
Cc1cc(C(=O)N2CCc3onc(C(=O)NCCN4CCOCC4)c3C2)ccc1Br [Example 90, 5-(4-bromo-3-methyl-benzoyl)-4,5,6,7-tetrahydro-isoxazolo[4,5-c]pyridine-3-carboxylic acid (2-morpholin-4-yl-ethyl) amide]	42%
Cc1ccc(S(=O)(=O)N2CCc3onc(C(=O)NC4CCN(Cc5c(Cl)cccc5Cl)C4)c3C2)cc1 (centres unmarked) [Example 91, 5-(toluene-4-sulfonyl)-4,5,6,7-tetrahydro-isoxazolo[4,5-c]pyridine-3-carboxylic acid [1-(2,6-dichloro-benzyl)-pyrrolidin-3-yl] amide]	61%
O=C(NCCN1CCCC1)c1noc2c1CN(C(=O)COc1cccc(Cl)c1)CC2 [Example 94, 5-[2-(3-chlorophenoxy)-acetyl]-4,5,6,7-tetrahydro-isoxazolo[4,5-c]pyridine-3-carboxylic acid (2-pyrrolidin-1-yl-ethyl) amide]	60%
O=C(c1noc2c1CN(S(=O)(=O)c1ccccc1)CC2)N1CCN(CC=Cc2ccccc2)CC1 [Example 97, (5-benzenesulfonyl-4,5,6,7-tetrahydro-isoxazolo[4,5-c]pyridin-3-yl)-[4-(3-phenyl-allyl)-piperazin-1-yl]-methanone]	70%
Cc1cc(C(=O)N2CCc3onc(C(=O)NCCN4CCCC4)c3C2)ccc1Br [Example 102, 5-(4-bromo-3-methyl-benzoyl)-4,5,6,7-tetrahydro-isoxazolo[4,5-c]pyridine-3-carboxylic acid (2-pyrrolidin-1-yl-ethyl) amide]	73%
O=C(NC1CCN(Cc2ccc(C(F)(F)F)cc2)C1)c1noc2c1CN(S(=O)(=O)c1ccccc1)CC2 (centres unmarked) [Example 103, 5-benzenesulfonyl-4,5,6,7-tetrahydro-isoxazolo[4,5-c]pyridine-3-carboxylic acid [1-(4-trifluoromethyl-benzyl)-pyrrolidin-3-yl] amide]	92%
CC(CNC(=O)c1noc2c1CN(S(=O)(=O)c1cccs1)CC2)c1ccccc1 (centres unmarked) [Example 104, 5-(thiophene-2-sulfonyl)-4,5,6,7-tetrahydro-isoxazolo[4,5-c]pyridine-3-carboxylic acid (2-phenyl-propyl) amide]	50%
COc1ccc(OCCNC(=O)c2noc3c2CN(S(=O)(=O)c2ccc(C)cc2)CC3)cc1 [Example 109, 5-(toluene-4-sulfonyl)-4,5,6,7-tetrahydro-isoxazolo[4,5-c]pyridine-3-carboxylic acid [2-(4-methoxy-phenoxy)-ethyl] amide]	56%
O=C(c1noc2c1CN(S(=O)(=O)c1cc(Cl)ccc1Cl)CC2)N1CCN(c2ccccc2Cl)CC1 [Example 110, [4-(2-chlorophenyl)-piperazin-1-yl]-[5-(2,5-dichloro-benzenesulfonyl)-4,5,6,7-tetrahydro-isoxazolo[4,5-c]pyridin-3-yl]-methanone]	55%
O=C(NCc1ccc(C(F)(F)F)c(F)c1)c1noc2c1CN(S(=O)(=O)c1ccccc1)CC2 [Example 113, 5-benzenesulfonyl-4,5,6,7-tetrahydro-isoxazolo[4,5-c]pyridine-3-carboxylic acid 3-fluoro-4-trifluoromethyl-benzyl amide]	60%
CCCCOc1ccc(S(=O)(=O)N2CCc3onc(C(=O)NCC(C)C)c3C2)cc1 [Example 114, 5-(4-butoxy-benzenesulfonyl)-4,5,6,7-tetrahydro-isoxazolo[4,5-c]pyridine-3-carboxylic acid isobutyl amide]	58%
O=C(NCCN1CCCC1)c1noc2c1CN(S(=O)(=O)c1cccc(Cl)c1)CC2 [Example 118, 5-(3-chloro-benzenesulfonyl)-4,5,6,7-tetrahydro-isoxazolo[4,5-c]pyridine-3-carboxylic acid (2-pyrrolidin-1-yl-ethyl) amide]	76%
CC(C)CNC(=O)c1noc2c1CN(C(=O)C(NC(=O)OCc1ccccc1)c1ccccc1)CC2 (centres unmarked) [Example 126, [2-(3-isobutylcarbamoyl-6,7-dihydro-4H-isoxazolo[4,5-c]pyridin-5-yl)-2-oxo-1-phenyl-ethyl]-carbamic acid benzyl ester]	88%
COc1ccc(CNC(=S)N2CCc3onc(C(=O)NC4CCCC4)c3C2)cc1 [Example 127, 5-(4-methoxy-benzylthiocarbamoyl)-4,5,6,7-tetrahydro-isoxazolo[4,5-c]pyridine-3-carboxylic acid cyclopentyl amide]	74%
O=C(NC(=S)N1CCc2onc(C(=O)NCCN3CCCC3)c2C1)c1ccccc1 [Example 128, 5-benzoylaminocarbothioyl-4,5,6,7-tetrahydro-isoxazolo[4,5-c]pyridine-3-carboxylic acid (2-pyrrolidin-1-yl-ethyl) amide]	74%
O=C(NCC1CC1)c1noc2c1CN(C(=S)NCc1ccc(Cl)cc1)CC2 [Example 129, 5-(4-chloro-benzylthiocarbamoyl)-4,5,6,7-tetrahydro-isoxazolo[4,5-c]pyridine-3-carboxylic acid cyclopropylmethyl amide]	53%

Structure (SMILES)	BTX inhibition (rat) % inhibition
COCCNC(=S)N1CCc2onc(C(=O)NCCc3ccccc3)c2C1 [Example 130, 5-(2-methoxy-ethylthiocarbamoyl)-4,5,6,7-tetrahydro-isoxazolo[4,5-c]pyridine-3-carboxylic acid phenethyl amide]	68%
O=C(NCCc1ccccc1)c1noc2c1CN(C(=S)Nc1c(F)c(F)c(F)c(F)c1F)CC2 [Example 131, 5-pentafluorophenylthiocarbamoyl-4,5,6,7-tetrahydro-isoxazolo[4,5-c]pyridine-3-carboxylic acid phenethyl amide]	58%
CC(NC(=S)N1CCc2onc(C(=O)NCCc3ccccc3)c2C1)c1ccccc1 (centres unmarked) [Example 132, 5-(1-phenyl-ethylthiocarbamoyl)-4,5,6,7-tetrahydro-isoxazolo[4,5-c]pyridine-3-carboxylic acid phenethyl amide]	90%
CCOC(=O)CCNC(=O)c1noc2c1CN(C(=S)NCC1CCCCC1)CC2 [Example 134, 3-{[5-(cyclohexylmethyl-thiocarbamoyl)-4,5,6,7-tetrahydro-isoxazolo[4,5-c]pyridine-3-carbonyl]-amino}-propionic acid ethyl ester]	55%
O=C(Nc1ccccc1)c1noc2c1CN(Cc1ccc3ccccc3c1Br)CC2 [Example 135, 5-(1-bromo-naphthalen-2-ylmethyl)-4,5,6,7-tetrahydro-isoxazolo[4,5-c]pyridine-3-carboxylic acid phenyl amide]	61%
O=C(c1noc2c1CN(S(=O)(=O)c1ccc(Cl)c(Cl)c1)CC2)N1CCN(c2nccs2)CC1 [Example 140, (5-(3,4-dichlorophenylsulfonyl)-4,5,6,7-tetrahydroisoxazolo[4,5-c]pyridin-3-yl)(4-(thiazol-2-yl)piperazin-1-yl)methanone]	55%
Cc1cc(C)c(S(=O)(=O)N2CCc3onc(C(=O)N4CCN(c5nccs5)CC4)c3C2)c(C)c1 [Example 141, (5-(mesitylsulfonyl)-4,5,6,7-tetrahydroisoxazolo[4,5-c]pyridin-3-yl)(4-(thiazol-2-yl)piperazin-1-yl)methanone]	67%
O=C(c1noc2c1CN(S(=O)(=O)c1cccc3ccccc13)CC2)N1CCN(c2nccs2)CC1 [Example 142, (5-(naphthalen-1-ylsulfonyl)-4,5,6,7-tetrahydroisoxazolo[4,5-c]pyridin-3-yl)(4-(thiazol-2-yl)piperazin-1-yl)methanone]	54%
O=C(c1noc2c1CN(S(=O)(=O)c1ccc3ccccc3c1)CC2)N1CCN(c2nccs2)CC1 [Example 143, (5-(naphthalen-2-ylsulfonyl)-4,5,6,7-tetrahydroisoxazolo[4,5-c]pyridin-3-yl)(4-(thiazol-2-yl)piperazin-1-yl)methanone]	48%
Cc1cc(C)c(S(=O)(=O)N2CCc3onc(C(=O)N4CCC(CCN5CCCC5)CC4)c3C2)c(C)c1 [Example 146, (5-(mesitylsulfonyl)-4,5,6,7-tetrahydroisoxazolo[4,5-c]pyridin-3-yl)(4-(2-(pyrrolidin-1-yl)ethyl)piperidin-1-yl)methanone]	81%
O=C(c1noc2c1CN(S(=O)(=O)c1ccc(Cl)c(Cl)c1)CC2)N1CCC(CCN2CCCC2)CC1 [Example 147, (5-(3,4-dichlorophenylsulfonyl)-4,5,6,7-tetrahydroisoxazolo[4,5-c]pyridin-3-yl)(4-(2-(pyrrolidin-1-yl)ethyl)piperidin-1-yl)methanone]	70%
O=C(c1noc2c1CN(S(=O)(=O)c1ccc3ccccc3c1)CC2)N1CCC(CCN2CCCC2)CC1 [Example 148, (5-(naphthalen-2-ylsulfonyl)-4,5,6,7-tetrahydroisoxazolo[4,5-c]pyridin-3-yl)(4-(2-(pyrrolidin-1-yl)ethyl)piperidin-1-yl)methanone]	74%
Cl.O=C(c1noc2c1CN(S(=O)(=O)c1cccc3ccccc13)CC2)N1CCC(CCN2CCCC2)CC1 [Example 149, (5-(Naphthalene-1-ylsulfonyl)-4,5,6,7-tetrahydroisoxazolo[4,5-c]pyridin-3-yl)(4-(2-(pyrrolidin-1-yl)ethyl)piperidin-1-yl)methanone hydrochloride]	86%
CC(NC(=O)N1CCc2onc(C(=O)NCc3ccccc3)c2C1)c1ccccc1 (centres unmarked) [Example 150, N^3-benzyl-N^5-(1-phenylethyl)-6,7-dihydroisoxazolo[4,5-c]pyridine-3,5(4H)-dicarboxamide]	49%
COc1ccc(NC(=O)N2CCc3onc(C(=O)NCc4ccccc4)c3C2)cc1 [Example 151, N^3-benzyl-N^5-(4-methoxyphenyl)-6,7-dihydroisoxazolo[4,5-c]pyridine-3,5(4H)-dicarboxamide]	36%
Cc1ccc(NC(=O)c2noc3c2CN(S(=O)(=O)c2ccc(C)cc2)CC3)cc1 [Example 152, N-p-tolyl-5-tosyl-4,5,6,7-tetrahydroisoxazolo[4,5-c]pyridine-3-carboxamide]	29%
